Measured values: patent US20220274967A1, “BCAT MODULATION” (Icagen, LLC, priority 2019, published 2022)

Assays:
BCAT1 = biological target: T1, BCAT1 (Homo sapiens, UniProt P54687); test: BCAT1 enzyme inhibition (human), Glutamate Glo luminescence; type: biochemical
T1 sequence (P54687 1-386): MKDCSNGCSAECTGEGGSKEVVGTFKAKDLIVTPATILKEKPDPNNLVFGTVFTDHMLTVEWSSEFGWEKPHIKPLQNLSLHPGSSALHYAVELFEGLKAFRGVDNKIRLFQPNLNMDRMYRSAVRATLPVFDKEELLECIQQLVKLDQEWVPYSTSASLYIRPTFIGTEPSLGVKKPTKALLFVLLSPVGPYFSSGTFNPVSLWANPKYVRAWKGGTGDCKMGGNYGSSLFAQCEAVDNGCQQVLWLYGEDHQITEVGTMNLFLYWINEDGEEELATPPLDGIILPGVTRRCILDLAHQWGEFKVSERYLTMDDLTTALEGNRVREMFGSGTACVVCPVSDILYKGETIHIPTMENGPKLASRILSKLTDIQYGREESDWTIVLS
Method: The BCAT1 inhibitory activity of selected compounds of the present disclosure were also evaluated. Compounds were prepared as up to 10 mM stock solutions generally using DMSO as the vehicle. 10-point dose response curves were generated using the Echo-550 (Labcyte) acoustic dispenser. Compound source plates ([…]) were made by serially diluting compound stocks to create 1 mM, 0.1 mM, and 0.01 mM solutions in DMSO into Echo certified LDV plates. The Echo then serially spotted 100% DMSO stock solutions into source dose response plates to generate a semi-log fold dilution scheme. 100% DMSO was added to the spotted dose response plates to bring the final volume to 5 μL, creating a 333× stock plate. 120 nL of the dose response stock plate was then spotted into the assay plate. 10 μL of assay buffer (50 mM Tris with 0.05% TWEEN-20) was then added to the plates resulting in a 4× working concentration in the assay plate. Final assay test concentration range was 3 μM to 0.0001 μM with a final DMSO concentration of 0.3%.
BCAT1 enzyme stock was first diluted to a 4× working concentration of 0.24 μg/mL in assay buffer (final assay concentration is 0.06 ug/ml). 10 μL of the 4×BCAT1 solution was then added to the previously prepared assay plate containing test compound or controls, and incubated at room temperature, protected from light, for either 10 or 60 minutes. After the compound incubation period, 20 μL of assay buffer plus 2× substrate is added to all wells (Final assay concentration of substrates is 300 μM L-leucine and 250 μM alpha-ketoglutaric acid). Enzyme reaction was then incubated for 10 minutes at room temperature. After the 10 minute incubation, the enzymatic reaction was halted with the addition of 5 μL of 0.6N HCl and incubated for 1 min. 5 μL of 1M Tris (pH 8.0) was then added to neutralize pH. 12.5 μL of the quenched assay volume was then transferred to a white, 384 well plate and 12.5 μL of Glutamate detection reagent was added (detection reagent prepared per Promega Glutamate Glo kit instructions). Plates were then incubated for 30 minutes at room temperature, protected from light. After glutamate detection incubation period, luminescence was read on BMG Novostar and relative light units was measured and exported for analysis.
Compound modulation of BCAT1 enzymatic activity was determined as follows. IC50 values were calculated in ActivityBase, using a 4-parameter fit equation. Data was normalized to maximum inhibition form the reference agent VS558CSA (at 10 μM). Relative light units were exported for analysis and % inhibition values for each well were calculated using the following formula: […]

BCAT2 = biological target: T2, BCAT2 (Homo sapiens, UniProt O15382); test: BCAT2 enzyme inhibition (human); type: biochemical
T2 sequence (O15382 28-392): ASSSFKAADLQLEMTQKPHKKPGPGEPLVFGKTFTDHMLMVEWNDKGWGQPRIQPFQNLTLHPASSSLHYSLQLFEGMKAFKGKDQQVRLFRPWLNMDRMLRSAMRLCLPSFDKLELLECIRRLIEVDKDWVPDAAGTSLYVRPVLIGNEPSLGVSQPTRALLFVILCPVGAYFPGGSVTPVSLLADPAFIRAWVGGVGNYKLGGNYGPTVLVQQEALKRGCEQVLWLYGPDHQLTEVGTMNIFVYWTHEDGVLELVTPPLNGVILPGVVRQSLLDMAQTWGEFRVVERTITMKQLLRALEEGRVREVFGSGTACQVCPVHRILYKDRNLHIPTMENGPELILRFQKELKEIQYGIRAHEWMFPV
Method: In further embodiments, the functional modulation of BCAT2 is assayed using a cell-free assay. In various embodiments, the cell-free assay is an enzyme-coupled fluorescent assay. For example, the disclosure contemplates use of an assay that monitors the production of L-glutamate from branch-chain amino acids and α-ketoglutarate through the coupling of hBCATm activity to two additional enzymes, L-Glutamate Oxidase (L-GOx) and Horseradish Peroxidase (HRP). Specifically, L-GOx catabolizes L-glutamate to generate α-ketoglutarate and […], the latter being utilized by HRP and leading to the formation of fluorescent resorufin from the redox-sensitive dye Amplex Red. In some embodiments, the test compound is classified as a candidate compound if a decrease in L-glutamate is measured. In further embodiments, the test compound is classified as a candidate compound if a decrease in α-ketoglutarate is measured.

GM00371 cells = test: Viability assay (Cell titer glo) in the 3-HIB assay; type: cell-based, human; details: Homo sapiens, 24 h, read-out: 3HIB INHIBITION IC50 (μM) MEAN GM00371 cells Viablility Assay
Method: Cell Plating: Cells (Coriell Institute GM00371 cells) were plated (96-well clear bottom sterile plate; Greiner 655098) at 10,000 cells/0.1 mL in Eagle's minimum essential medium (EMEM)/15% FBS (Gibco 16000-044) with a Combi dispenser in a cell culture hood and incubated at 37° C. and 5% CO2 overnight.
Compound Dilution: Compound were prepared as 33.3× intermediate dilution in DMSO in 96 well round polystyrene plates. For 30 μM final maximum start with 30 μL of 10 mM in DMSO. 10-12 1:3 serial dilutions were prepared from left to right (20 μL+40 μL DMSO). A 10× secondary dilution was prepare in EMEM by taking 7.5 μL 33.3× and transfer to replicate 96 well round polystyrene plates and then adding 242.5 μL EMEM A 1× final dilution in EMEM was prepared by taking 50 μL 10× dilution and transferring to replicate 96 well polypropylene assay block (Costar 3956) and adding 450 μL EMEM A control was prepared for maximal compound inhibition by taking 20 μL 10 mM Reference Compound A and adding 40 μL DMSO for a concentration of 3.3 mM To 7.5 μL of the 3.3 mM Reference Compound A solution and added 242.5 μL EMEM to make a 100 μM solution. The subsequent Reference Compound A solution was diluted with EMEM to achieve a final concentration of 10 μM. The structure of Reference Compound A is:
A control was prepared for maximal compound toxicity by taking 7.5 μL Reference Compound B and 242.5 μL EMEM to make […]. 50 μL of that 100 μM Reference Compound B solution was combined with 450 μL EMEM to achieve a concentration of 30 μM. The structure of Reference Compound B is
Compound Treatment: Media was aspirated from the cells and 100 μL of D-PBS (ThermoFisher 14190144) was added and then removed. 100 μL of diluted compound was added to the cells in the place and the cells were incubated at 37° C. and 5% CO2 for 24 hours.
Viability Assay: To the cells remaining in the plate 25 μL D-PBS and 25 μL Cell titer glo reagent (Promega G7572). The plate was placed on a shaker for 2 minutes, incubated at room temperature in the dark and then read on a Clariostar microplate reader.

Structure (SMILES) | IC50 (BCAT1) | IC50 (BCAT2) | IC50 (GM00371 cells)
CNC(=O)c1ccc2c(c1)nc(-c1ncccn1)n2[C@H]1CCC[C@@H](NC(=O)c2ccc(Br)s2)C1 [Compound 147] | ≥ 1 µM | < 0.1 µM | 
CNC(=O)c1cc2nc(-c3ccccn3)n([C@H]3CCC[C@@H](NC(=O)c4ccc(Br)s4)C3)c2cc1Cl [Compound 238] | ≥ 1 µM | 0.1 to 0.5 µM | 
CNC(=O)c1ccc2c(c1)nc(-c1ccccn1)n2[C@H]1CCC[C@@H](NC(=O)c2sc(Cl)cc2OC)C1 [Compound 243] | ≥ 1 µM | 0.1 to 0.5 µM | 
CNC(=O)c1cc2nc(-c3ncccc3F)n([C@H]3CCC[C@@H](NC(=O)c4ccc(Cl)s4)C3)c2cc1Cl [Compound 236] | ≥ 1 µM | 0.1 to 0.5 µM | 
O=C(N[C@@H]1CCC[C@H](n2c(-c3ccccn3)nc3cccnc32)C1)c1ccc(Br)s1 [Compound 280] | ≥ 1 µM | 0.1 to 0.5 µM | 
CNC(=O)c1ccc2c(c1)nc(-c1ccccc1C#N)n2[C@H]1CCC[C@@H](C(=O)Nc2ccccc2)C1 [Compound 203] | ≥ 1 µM | > 1 µM | 
O=C(N[C@@H]1CCC[C@H](n2c(-c3ccccn3)nc3ccncc32)C1)c1ccc(Br)s1 [Compound 294] | ≥ 1 µM | 0.1 to 0.5 µM | 
CNC(=O)c1ccc2c(c1)nc(-c1cccc(F)c1)n2C1CCCN(C(=O)Nc2cccs2)C1 (stereo not shown) [Compound 228] | ≥ 1 µM | > 1 µM | 
O=C(N[C@@H]1CCC[C@H](n2c(-c3ccccn3)nc3cnc(F)cc32)C1)c1ccc(Cl)s1 [Compound 288] | ≥ 1 µM | 0.1 to 0.5 µM | 
CNC(=O)c1ccc2c(c1)nc(-c1cnccn1)n2[C@H]1CCC[C@@H](NC(=O)c2ccc(Br)s2)C1 [Compound 149] | ≥ 1 µM | 0.1 to 0.5 µM | 
CNC(=O)c1cc2nc(-c3ncccc3F)n([C@H]3CCC[C@@H](NC(=O)c4ccc(Cl)s4)C3)c2cn1 [Compound 286, 3-((1S,3R)-3-(5-chlorothiophene-2-carboxamido)cyclohexyl)-2-(3-fluoropyridin-2-yl)-N-methyl-3H-imidazo[4,5-c]pyridine-6-carboxamide] | < 0.1 µM | < 0.1 µM | 
CNC(=O)c1cc2nc(-c3c(F)ccc(F)c3O)n([C@H]3CCC[C@@H](NC(=O)c4ccc(C#N)s4)C3)c2cc1F [Compound 232] | ≥ 1 µM | < 0.1 µM | 
CNC(=O)c1ccc2c(c1)nc(-c1ccccn1)n2[C@H]1CCC[C@@H](NC(=O)c2sc(Cl)cc2Cl)C1 [Compound 242] | ≥ 1 µM | > 1 µM | 
CNC(=O)c1cc2nc(-c3c(F)ccc(F)c3O)n([C@H]3CCC[C@@H](NC(=O)c4ccc(Cl)s4)C3)c2cc1F [Compound 231] | ≥ 1 µM | < 0.1 µM | 
O=C(N[C@@H]1CCC[C@H](n2c(-c3ncccc3F)nc3ccncc32)C1)c1ccc(Br)s1 [Compound 298] | 0.5 to 1 µM | < 0.1 µM | 
CNC(=O)c1ccc2c(c1)nc(-c1cccc(F)c1)n2C1CCCN(C(=O)Nc2ccc(Br)s2)C1 (stereo not shown) [Compound 229] | ≥ 1 µM | > 1 µM | 
CNC(=O)c1ccn2c(C3CCCC(NC(=O)c4ccc(Br)s4)C3)c(-c3ccccc3)nc2c1 (stereo not shown) [Compound 303] | ≥ 1 µM | 0.1 to 0.5 µM | 
CNC(=O)c1ccc2c(c1)nc(-c1ccccn1)n2[C@@H]1CCC[C@@H](NC(=O)c2ccc(Br)s2)C1 [Compound 101] | ≥ 1 µM |  | 
CNC(=O)c1ccc2c(c1)nc(-c1ccccn1)n2[C@H]1CCC[C@@H](NC(=O)c2sc(Br)cc2F)C1 [Compound 241] | ≥ 1 µM | < 0.1 µM | 
CNC(=O)c1ccc2c(C3CCCC(NC(=O)c4cccs4)C3)c(-c3ccccc3)[nH]c2c1 (stereo not shown) [Compound 290] |  | > 1 µM | ≥ 1 µM
C=CC(=O)N[C@H]1CCC[C@@H](n2c(-c3ccccn3)nc3cc(C(=O)NC)ccc32)C1 [Compound 106] |  | > 1 µM | ≥ 1 µM
CNC(=O)c1ccc2c(C3CCCC(NC(=O)c4ccc(Br)s4)C3)c(-c3ccccc3)[nH]c2c1 (stereo not shown) [Compound 283, 3-(3-(5-bromothiophene-2-carboxamido)cyclohexyl)-N-methyl-2 phenyl-1H-indole-6-carboxamide] |  | > 1 µM | ≥ 1 µM
CNC(=O)c1cc2nc(-c3ccccc3F)n([C@H]3CCC[C@@H](NC(=O)c4ccc(Cl)s4)C3)c2cc1OC [Compound 212] |  | < 0.1 µM | < 0.1 µM
O=C(N[C@H]1CCC[C@@H](n2c(-c3ccccn3)nc3cc(CO)ccc32)C1)c1cccs1 [Compound 118] |  | > 1 µM | ≥ 1 µM
CNC(=O)c1ccc2c(c1)nc(-c1ccccn1)n2C1CCCC(NC(=O)c2ccc(C3CC3)s2)C1 (stereo not shown) [Compound 144] |  | 0.5 to 1 µM | ≥ 1 µM
CNC(=O)c1cc2nc(-c3ccccc3)n([C@H]3CCC[C@@H](NC(=O)c4ccc(Br)s4)C3)c2cn1 [Compound 297] |  | < 0.1 µM | 0.1 to 0.5 µM
C=CC(=O)Nc1ccc(C(=O)N[C@H]2CCC[C@@H](n3c(-c4ccccn4)nc4cc(C(=O)NC)ccc43)C2)s1 [Compound 110] |  | > 1 µM | ≥ 1 µM
CNC(=O)c1ccc2c(c1)nc(-c1ccccn1)n2[C@@H]1CCC[C@H](NC(=O)c2ccccc2)C1 [Compound 115] |  | > 1 µM | ≥ 1 µM
